We go through 45 compounds from patent US9957271B2, “Substituted bicyclic aza-heterocycles and analogues as sirtuin modulators” (GlaxoSmithKline, LLC, priority 2012, dated 2018).

Each structure is given as a SMILES string.

This assay deals with T1, SIRT1 (Homo sapiens, UniProt Q96EB6).
T1 sequence (Q96EB6 1-747): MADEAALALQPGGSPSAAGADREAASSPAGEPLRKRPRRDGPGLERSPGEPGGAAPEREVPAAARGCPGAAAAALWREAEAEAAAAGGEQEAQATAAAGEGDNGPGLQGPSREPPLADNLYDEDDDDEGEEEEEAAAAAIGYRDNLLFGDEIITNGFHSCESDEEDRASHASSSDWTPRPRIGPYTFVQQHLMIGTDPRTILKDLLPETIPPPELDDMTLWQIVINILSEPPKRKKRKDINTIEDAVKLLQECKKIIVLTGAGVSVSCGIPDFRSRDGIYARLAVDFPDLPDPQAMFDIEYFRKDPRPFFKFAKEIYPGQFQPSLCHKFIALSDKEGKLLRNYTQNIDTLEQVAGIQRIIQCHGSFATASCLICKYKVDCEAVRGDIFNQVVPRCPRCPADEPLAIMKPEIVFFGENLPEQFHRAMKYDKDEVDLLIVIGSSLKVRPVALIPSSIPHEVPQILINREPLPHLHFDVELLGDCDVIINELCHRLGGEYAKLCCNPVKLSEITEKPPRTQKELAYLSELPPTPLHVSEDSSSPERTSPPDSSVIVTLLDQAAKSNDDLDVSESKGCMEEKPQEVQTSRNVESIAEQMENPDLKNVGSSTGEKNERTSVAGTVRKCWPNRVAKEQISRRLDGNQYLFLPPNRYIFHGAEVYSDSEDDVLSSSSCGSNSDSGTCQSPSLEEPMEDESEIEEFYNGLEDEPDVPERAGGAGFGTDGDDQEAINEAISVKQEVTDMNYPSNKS
Nature of the assay: TAMRA based mass spectrometry assay of SIRT1 activity. It is filed as biochemical. The settings on record: TAMRA assay; for TAMRA EC1.5 (μM): concentration giving 150% activation of SIRT1; for Emax: percent maximum fold activation, read-out: TAMRA % Fold Act. The procedure, abridged:
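Recombinant N-terminal His-tagged human SIRT1 (10 nM, E. coli) incubated 25 min at 25 °C with 0.5 μM 5TMR-labelled p53-derived acetyl-peptide and 120 μM βNAD+ in Tris-acetate pH 8 buffer with DTT and 0.05% BSA, compound at varying concentrations. Stopped with formic acid; deacetylated peptide or OAADPR measured by mass spectrometry relative to DMSO controls.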

On to `Cc1cnc(NC(=O)c2cnn3ccc(-c4ccccc4OC(F)(F)F)nc23)cn1` [Compound 623], for which the “TAMRA EC1.5 (μM)” value is “A (EC1.5<1 μM)” and the Emax was ≥ 350%.
On the same counts, the results for `Cc1ccc(NC(=O)c2cnn3ccc(-c4ccccc4OC(F)(F)F)nc23)c(C)n1` [Compound 625] are “B (EC1.5 1-25 μM)” and < 350%.
On the same counts, the results for `CCOc1cc(NC(=O)c2cnn3ccc(-c4ccccc4OC(F)(F)F)nc23)ccn1` [Compound 626] are “A (EC1.5<1 μM)” and ≥ 350%.
In the case of `Cc1cc(NC(=O)c2c(C)nn3ccc(-c4ccccc4C(F)(F)F)nc23)ccn1` [Compound 629], the “TAMRA EC1.5 (μM)” value is given as “A (EC1.5<1 μM)” and the Emax is ≥ 350%.
Regarding `Cc1ccc(NC(=O)c2cnn3ccc(-c4ccccc4C(F)(F)F)nc23)cn1` [Compound 631], the “TAMRA EC1.5 (μM)” value was “A (EC1.5<1 μM)” and the Emax is ≥ 350%.
As to `Cc1cncc(NC(=O)c2cnn3ccc(-c4ccccc4C(F)(F)F)nc23)c1` [Compound 632], the “TAMRA EC1.5 (μM)” value is “A (EC1.5<1 μM)” and the Emax is ≥ 350%.
On the same counts, the results for `COc1ccc(NC(=O)c2cnn3ccc(-c4ccccc4OC(F)(F)F)nc23)nn1` [Compound 635] are “A (EC1.5<1 μM)” and ≥ 350%.
The matching figures for `Cc1ccc(NC(=O)c2c(C)nn3ccc(-c4ccccc4C(F)(F)F)nc23)cn1` [Compound 637]: “A (EC1.5<1 μM)” and ≥ 350%.
In the case of `Cc1cncc(NC(=O)c2c(C)nn3ccc(-c4ccccc4C(F)(F)F)nc23)c1` [Compound 638], the “TAMRA EC1.5 (μM)” value is given as “A (EC1.5<1 μM)” and the Emax is ≥ 350%.
`Cc1ccc(NC(=O)c2cnn3ccc(-c4ccccc4C(F)(F)F)nc23)c(C)n1` [Compound 641]: the “TAMRA EC1.5 (μM)” value is reported as “B (EC1.5 1-25 μM)” and the Emax was ≥ 350%.
As for `CCOc1cc(NC(=O)c2cnn3ccc(-c4ccccc4C(F)(F)F)nc23)ccn1` [Compound 643], the “TAMRA EC1.5 (μM)” value was “A (EC1.5<1 μM)” and the Emax is ≥ 350%.
The matching figures for `Cc1cc(-c2ccccc2C(F)(F)F)nn2c(C(=O)Nc3cc(N4CCCC4)ncn3)cnc12` [Compound 646]: “A (EC1.5<1 μM)” and ≥ 350%.
For `Cc1cc(NC(=O)c2c(C)nn3ccc(-c4ccccc4C(F)(F)F)nc23)cc(C)n1` [Compound 648], the “TAMRA EC1.5 (μM)” value is given as “A (EC1.5<1 μM)” and the Emax was ≥ 350%.
The matching figures for `Cc1ccncc1NC(=O)c1c(C)nn2ccc(-c3ccccc3C(F)(F)F)nc12` [Compound 649]: “A (EC1.5<1 μM)” and < 350%.
Regarding `Cc1nc(NC(=O)c2c(C)nn3ccc(-c4ccccc4C(F)(F)F)nc23)sc1C` [Compound 651], the “TAMRA EC1.5 (μM)” value is given as “A (EC1.5<1 μM)” and the Emax was ≥ 350%.
The matching figures for `Cc1cnc(NC(=O)c2c(C)nn3ccc(-c4ccccc4C(F)(F)F)nc23)s1` [Compound 652]: “A (EC1.5<1 μM)” and ≥ 350%.
Regarding `Cc1ccc(NC(=O)c2cnn3ccc(-c4ccccc4C(F)(F)F)nc23)nn1` [Compound 655], the “TAMRA EC1.5 (μM)” value was “A (EC1.5<1 μM)” and the Emax is ≥ 350%.
The matching figures for `CCOc1ccc(NC(=O)c2cnn3ccc(-c4ccccc4C(F)(F)F)nc23)nn1` [Compound 658]: “A (EC1.5<1 μM)” and ≥ 350%.
Turning to `O=C(Nc1cncc(F)c1)c1cnn2ccc(-c3ccccc3OC(F)(F)F)nc12` [Compound 660], the “TAMRA EC1.5 (μM)” value is “A (EC1.5<1 μM)” and the Emax was ≥ 350%.
For the compound `Cc1cc(C)c(NC(=O)c2cnn3ccc(-c4ccccc4OC(F)(F)F)nc23)cn1` [Compound 661], the “TAMRA EC1.5 (μM)” value is “B (EC1.5 1-25 μM)” and the Emax is < 350%.
For the compound `COCCOc1cc(NC(=O)c2cnc3c(C)cc(-c4ccccc4C(F)(F)F)nn23)ncn1` [Compound 662], the “TAMRA EC1.5 (μM)” value is reported as “A (EC1.5<1 μM)” and the Emax is < 350%.
On the same counts, the results for `Cc1ccc(NC(=O)c2c(C)nc3ccc(-c4ccccc4C(F)(F)F)nn23)nn1` [Compound 664] are “A (EC1.5<1 μM)” and ≥ 350%.
The matching figures for `CCOc1ccc(NC(=O)c2c(C)nc3ccc(-c4ccccc4C(F)(F)F)nn23)nn1` [Compound 666]: “A (EC1.5<1 μM)” and ≥ 350%.
For the compound `Cc1nc2ccc(-c3ccccc3C(F)(F)F)nn2c1C(=O)Nc1cnncn1` [Compound 667], the “TAMRA EC1.5 (μM)” value is given as “A (EC1.5<1 μM)” and the Emax is ≥ 350%.
As for `Cc1nc2ccc(-c3ccccc3C(F)(F)F)nn2c1C(=O)Nc1nccc(N2CCCC2)n1` [Compound 669], the “TAMRA EC1.5 (μM)” value is “A (EC1.5<1 μM)” and the Emax was ≥ 350%.
On to `COc1cncnc1NC(=O)c1c(C)nc2ccc(-c3ccccc3C(F)(F)F)nn12` [Compound 670], for which the “TAMRA EC1.5 (μM)” value is “A (EC1.5<1 μM)” and the Emax is ≥ 350%.
On the same counts, the results for `Cc1nc2ccc(-c3ccccc3C(F)(F)F)nn2c1C(=O)Nc1ccc(Cl)cn1` [Compound 673] are “A (EC1.5<1 μM)” and ≥ 350%.
As to `Cc1nc2ccc(-c3ccccc3C(F)(F)F)nn2c1C(=O)Nc1ccnn1C` [Compound 675], the “TAMRA EC1.5 (μM)” value is recorded as “C (EC1.5>25 μM)” and the Emax was < 350%.
On the same counts, the results for `CCOc1n[nH]c(NC(=O)c2c(C)nc3ccc(-c4ccccc4C(F)(F)F)nn23)n1` [Compound 676] are “A (EC1.5<1 μM)” and ≥ 350%.
In the case of `Cc1ccc(NC(=O)c2c(C)nn3ccc(-c4ccccc4C(F)(F)F)nc23)nc1` [Compound 684], the “TAMRA EC1.5 (μM)” value is recorded as “A (EC1.5<1 μM)” and the Emax is ≥ 350%.
With `Cc1cc(C)nc(NC(=O)c2c(C)nn3ccc(-c4ccccc4C(F)(F)F)nc23)c1` [Compound 685], the “TAMRA EC1.5 (μM)” value is on record as “A (EC1.5<1 μM)” and the Emax is ≥ 350%.
The matching figures for `Cc1cc(C)c(NC(=O)c2cnn3ccc(-c4ccccc4C(F)(F)F)nc23)cn1` [Compound 687]: “B (EC1.5 1-25 μM)” and < 350%.
The matching figures for `Cc1cnc(NC(=O)c2cnn3ccc(-c4ccccc4OC(F)(F)F)nc23)c(C)n1` [Compound 689]: “C (EC1.5>25 μM)” and < 350%.
Regarding `O=C(Nc1ncc(F)cc1F)c1cnn2ccc(-c3ccccc3OC(F)(F)F)nc12` [Compound 690], the “TAMRA EC1.5 (μM)” value was “C (EC1.5>25 μM)” and the Emax is < 350%.
On the same counts, the results for `Cc1cc(-c2ccccc2C(F)(F)F)nn2c(C(=O)Nc3ccnc(N4CC5(CCS5(=O)=O)C4)n3)cnc12` [Compound 691] are “A (EC1.5<1 μM)” and ≥ 350%.
On the same counts, the results for `COc1ccc(NC(=O)c2c(C)nn3ccc(-c4ccccc4C(F)(F)F)nc23)nn1` [Compound 696] are “A (EC1.5<1 μM)” and ≥ 350%.
As to `CCOc1ccc(NC(=O)c2c(C)nn3ccc(-c4ccccc4C(F)(F)F)nc23)nn1` [Compound 697], the “TAMRA EC1.5 (μM)” value is reported as “A (EC1.5<1 μM)” and the Emax was ≥ 350%.
On the same counts, the results for `Cc1ncccc1NC(=O)c1c(C)nn2ccc(-c3ccccc3C(F)(F)F)nc12` [Compound 699] are “A (EC1.5<1 μM)” and < 350%.
Turning to `Cc1csc(NC(=O)c2cnn3ccc(-c4ccccc4OC(F)(F)F)nc23)n1` [Compound 702], the “TAMRA EC1.5 (μM)” value was “A (EC1.5<1 μM)” and the Emax was ≥ 350%.
The matching figures for `COc1cc(NC(=O)c2cnn3ccc(-c4ccccc4OC(F)(F)F)nc23)ncn1` [Compound 703]: “A (EC1.5<1 μM)” and ≥ 350%.
With `O=C(Nc1cnc2ccc(-c3ccccc3C(F)(F)F)nn12)c1cc(O)ncn1` [Compound 705], the “TAMRA EC1.5 (μM)” value is “A (EC1.5<1 μM)” and the Emax was ≥ 350%.
On the same counts, the results for `Cc1cc(C)c(NC(=O)c2c(C)nn3ccc(-c4ccccc4C(F)(F)F)nc23)cn1` [Compound 708] are “B (EC1.5 1-25 μM)” and ≥ 350%.
On the same counts, the results for `Cc1nn2ccc(-c3ccccc3C(F)(F)F)nc2c1C(=O)Nc1nccs1` [Compound 709] are “A (EC1.5<1 μM)” and ≥ 350%.
On the same counts, the results for `O=C(Nc1cc(O)ncn1)c1cnn2ccc(-c3ccccc3OC(F)(F)F)nc12` [Compound 711] are “A (EC1.5<1 μM)” and ≥ 350%.
As for `Cc1ccnc(C(=O)Nc2cnn3ccc(-c4ccccc4OC(F)(F)F)nc23)c1` [Compound 714], the “TAMRA EC1.5 (μM)” value was “A (EC1.5<1 μM)” and the Emax was ≥ 350%.
